Test results reported in article PMC4226669, “Anti-cancer potency of tasquinimod is enhanced via albumin-binding facilitating increased uptake in the tumor microenvironment” (Oncotarget, 2014).

Key:
[1] = Nadir plasma concentration after 5 days oral dosing in C57Bl/6J mice; format: in vivo, mouse; settings: 5 mg/kg/day oral gavage, end of 5 days
Procedure: To determine whether this chronic 5 mg/kg/day oral dosing regimen produces similar blood concentrations in mice as obtained in human trials, intact adult male C57Bl/6J mice (n=4) were given ^14C- radiolabeled tasquinimod via oral gavage and then the plasma concentration of drug at the end of 5 days determined based upon radioactivity levels.

[2] = tested on: HUVEC and CWR-22Rv1, LAPC-4, LNCaP cells; experiment: In vitro cell metabolism in HUVEC and 3 prostate cancer cell lines; format: in vitro ADME, human; settings: 48 hours, 1 μM, confluent cell density
Source text: Since tasquinimod binds to both S100A9 and HDAC4 proteins with high affinities and since S100A9 has both an extracellular and intracellular location while HDAC4 in prostate cancer cells is in the cell nucleus, it is important to evaluate whether tasquinimod is capable of entering cells or whether it only associates with extracellular plasma membrane components. To resolve this question, an in vitro approach was taken using three human prostate cancer cells (i.e., CWR-22Rv1, LAPC-4, and LNCaP) and human umbilical vein endothelial (HUVEC) cells. When 1 μM tasquinimod is added to 10% fetal bovine serum (FBS) supplemented media, there is sufficient albumin to bind 80% of the drug so that the protein-free concentration of tasquinimod in such media is only 0.2 μM. Preliminary studies documented that even after 48 hours of exposure of HUVEC and each of the 3 prostate cancer cell lines to 1 μM at confluent cell density, there was < 15% metabolism of the parental tasquinimod drug with the major metabolite being the O-demethylated quinoline compound.
(§1) For in vitro studies, cells were incubated with 1μM ^14C-labeled tasquinimod for indicated time period and then the media and cells or cell nuclei separately harvested, deproteinated with acetonitrile, and metabolites separated by HPLC and quantitated as described above.

[3] = tested on: metastatic, castrate resistant prostate cancer; design: method as in PMID 21931019, PMID 24255071; settings: vs placebo; cited from earlier work
[4] = Protein binding fraction (PBF) in human plasma; format: in vitro ADME; settings: 1-50 μM radiolabeled tasquinimod
Procedure: An explanation for this highly restricted cellular uptake in the blood is provided by the fact that protein binding fraction (PBF) for tasquinimod in nude mouse plasma is 98 ± 1%. This is not a nude mouse specific effect since incubation of 1-50 μM radiolabeled tasquinimod with human plasma or bovine fetal serum (FBS) results in a PBF of ~ 98%.
Mice were orally gavaged with ^14C-labeled tasquinimod at a dose of 5mg/kg and 1 hour later blood collected and plasma isolated and the PBF determined as described previously using Centrifree® YM-30 centrifuge filter unit with a molecular weight cutoff of 30K (i.e., Millipore, Billerica,MO).

human albumin = molecular target: T1, human albumin (Homo sapiens, UniProt P02768); experiment: Equilibrium dialysis binding to human albumin; settings: pH 7.4, equilibrium dialysis, read-out: equilibrium dissociation constant (Kd)
T1 construct: purchased Sigma
T1 sequence (P02768 25-609): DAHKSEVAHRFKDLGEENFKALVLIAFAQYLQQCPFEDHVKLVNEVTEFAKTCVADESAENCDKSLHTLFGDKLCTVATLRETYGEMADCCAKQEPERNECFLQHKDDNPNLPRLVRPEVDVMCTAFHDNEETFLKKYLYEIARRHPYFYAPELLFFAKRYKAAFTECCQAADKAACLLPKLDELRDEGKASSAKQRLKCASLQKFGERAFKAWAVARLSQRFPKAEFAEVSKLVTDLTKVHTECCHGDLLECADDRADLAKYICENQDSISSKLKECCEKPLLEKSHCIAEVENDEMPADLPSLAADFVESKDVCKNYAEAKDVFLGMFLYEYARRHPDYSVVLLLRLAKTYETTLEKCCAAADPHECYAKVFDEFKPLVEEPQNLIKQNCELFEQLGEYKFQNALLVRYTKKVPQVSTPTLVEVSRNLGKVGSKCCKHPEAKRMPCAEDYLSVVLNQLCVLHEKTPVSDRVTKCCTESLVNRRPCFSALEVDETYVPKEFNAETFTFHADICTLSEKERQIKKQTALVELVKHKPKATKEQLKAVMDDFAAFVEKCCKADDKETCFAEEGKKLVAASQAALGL
Procedure: To determine whether albumin is the tasquinimod binding protein in plasma, albumin was removed from human plasma using an albumin depletion kit (Thermo Scientific cat # 85160). The albumin depleted plasma was then tested for its protein binding as described above. The dissociation constant (kd) for tasquinimod binding was determined based upon equilibrium dialysis of a mixture of 4mg/ml of the species (i.e., human, bovine, and mouse) specific albumin obtained from Sigma with 2μM of ^14C-labeled tasquinimod in PBS pH 7.4 buffer using a 96-well equilibrium dialyzer™ (Harvard Apparatus, Holliston,MA).

HUVEC cells = experiment: In vitro cell metabolism in HUVEC; format: in vitro ADME, human; settings: HUVEC, 1 μM, 48 hours
Procedure: The nuclear uptake results are consistent with tasquinimod being the active drug for both direct therapeutic effects on cancer cells and indirect effects via suppression of the angiogenic response of host endothelial cells. To confirm these conclusions, the concentration of tasquinimod metabolites produced by endothelial cells was compared to the potency of these metabolites for inhibiting angiogenesis. When HUVEC cells are exposed to 1 μM of ^14C-labeled tasquinimod for 48 hours, < 15% of the drug is metabolized with 10% (i.e., 100 nM) being converted to the quinoline-O-demethylated compound and < 2% (i.e., < 20 nM) being converted to the quinoline-N-demethylated or carboxamide-N-demethylated compounds.
as §1

For COc1cccc2c1c(O)c(C(=O)N(C)c1ccc(C(F)(F)F)cc1)c(=O)n2C [Tasquinimod], the nadir plasma concentration [1] is listed as 1.08 ± 0.21 µM, the “metabolism of the parental drug” value [2] is listed as under 15% and the median progression-free survival [3] is listed as “doubles”. It also gave a fraction unbound [4] of about 0.02, a Kd (human albumin) of 24 ± 4 µM and a drug metabolized (HUVEC cells) of under 15%.
